# Biological target: DNA repair nuclease/redox regulator APEX1 (Homo sapiens, UniProt P27695)
# Test: Inhibition of purified human recombinant APE1 expressed in Escherichia coli M15 cells
# Sequence of DNA repair nuclease/redox regulator APEX1 (P27695 whole entry): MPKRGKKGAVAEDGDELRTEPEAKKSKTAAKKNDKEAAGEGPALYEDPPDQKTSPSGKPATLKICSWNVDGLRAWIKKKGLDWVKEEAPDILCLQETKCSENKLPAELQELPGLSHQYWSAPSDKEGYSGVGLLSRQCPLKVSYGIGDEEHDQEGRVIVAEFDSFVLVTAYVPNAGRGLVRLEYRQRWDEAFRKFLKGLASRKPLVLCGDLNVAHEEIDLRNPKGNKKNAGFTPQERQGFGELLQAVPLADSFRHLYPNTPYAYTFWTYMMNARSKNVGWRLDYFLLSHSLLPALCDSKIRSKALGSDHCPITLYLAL
row,Compound,IC50 [µM]
1,O=C(O)c1ccc(NS(=O)(=O)c2cccs2)cc1,> 100
2,Nc1ccc(-c2ccc(N)c(S(=O)(=O)O)c2)cc1S(=O)(=O)O,> 100
3,O=S(=O)(NCc1ccccc1)c1ccc(S(=O)(=O)N(Cc2ccc(Cl)cc2)Cc2ccco2)cc1,> 100
4,COc1ccc(S(=O)(=O)N2CCC(C(=O)O)CC2)cc1C(=O)O,30
5,Cc1oc(CSCCSCc2cc(C(=O)O)c(C)o2)cc1C(=O)O,5
6,O=C(O)CCCNc1n[nH]c(=O)[nH]c1=O,> 100
7,CC1CCc2c(sc3nc(C4CC4)n4c(SCC(=O)Nc5nccs5)nnc4c23)C1 (stereo unspecified),> 100
8,O=C(O)CC1S/C(=N/N=C/c2ccco2)NC1=O (stereo unspecified),> 100
9,COC(=O)CSc1nnc(-c2ccc(NS(C)(=O)=O)cc2)n1C,> 100
10,O=C(O)CCC1(CCC(=O)O)c2ccccc2-c2ccccc21,50
11,CCN1/C(=C2/SC(=S)N(NC(C)=O)C2=O)Sc2ccc(S(=O)(=O)C(F)(F)F)cc21,> 100
12,O=C(O)c1cccc(S(=O)(=O)N2CCCC(c3nc(O)c4nnn(Cc5ccccc5Cl)c4n3)C2)c1 (stereo unspecified),87
13,O=C(Nc1ccccc1O)c1cccc(S(=O)(=O)N2CCCC2)c1,> 100
14,O=S(=O)(c1ccc(F)cc1)N1CCCC(c2nc(O)c3nnn(Cc4ccc(F)cc4)c3n2)C1 (stereo unspecified),> 100
15,Cc1oc(C)c(C(=O)NCC(=O)O)c1C(=O)NCC(=O)O,26
16,CCOc1cc(S(=O)(=O)NCc2ccc3c(c2)OCO3)c(OCC)cc1-n1cnnn1,> 100
17,CCn1c(SCC(=O)c2cccs2)nnc1-c1ccc(NS(C)(=O)=O)cc1,> 100
18,O=C(c1ccc2c(c1)C(=O)N(c1ccccc1C(=O)O)C2=O)c1ccc2c(c1)C(=O)N(c1ccccc1C(=O)O)C2=O,8
19,O=C(O)CSc1ccc(C(=O)O)cc1[N+](=O)[O-],100
20,O=C(O)CCS(=O)(=O)c1cccc2c(S(=O)(=O)CCC(=O)O)cccc12,35
21,Cc1cc(C)nc(SCc2nnc(SCC(=O)N3CCCCC3)n2-c2ccccc2)n1,> 100
22,C=CCN1C(=S)S/C(=C/C=C2\Sc3ccccc3N2CCCS(=O)(=O)O)C1=S,> 100
23,O=C(O)CC1OC(=O)c2cc3c(cc21)C(=O)OC3CC(=O)O (stereo unspecified),11

row,Compound,IC50 [µM]
1,O=[N+]([O-])c1ccccc1-c1nnc(CSc2nnc(-c3ccccc3O)o2)o1,> 100
2,O=C(O)c1oc2ccccc2c1CSc1ccccn1,27
3,CC(Oc1cc(OC(C)C(=O)O)c2c(c1)oc(=O)c1ccccc12)C(=O)O (stereo unspecified),8
4,O=C(O)CN1C(=O)/C(=C2\SC(=S)N(NC(=O)c3ccccc3O)C2=O)c2ccccc21,11
5,COc1cc(-c2nnn[nH]2)ccc1OCC(=O)O,> 100
6,O=C(O)CCc1nc2cc(C(=O)O)ccc2[nH]1,80
7,O=C(O)CC(CC(=O)Nc1nnn[nH]1)c1ccccc1 (stereo unspecified),30
8,COC(=O)COc1ccc(S(=O)(=O)N2CCCCC2)cc1C,> 100
9,CCc1nnc(NC(=O)c2cc(S(=O)(=O)N(CC)CC)ccc2Cl)s1,> 100
10,O=C(O)CN1C(=O)/C(=C2\SC(=S)N(c3ccc(Br)cc3)C2=O)c2ccccc21,6
11,CCCCOC(=O)c1ccc(NC(=O)CSc2nnnn2CC)cc1,> 100
12,CCOc1cc(-n2cnnn2)c(OCC)cc1NC(=O)c1cc2cccc(OC)c2oc1=O,> 100
13,O=S(=O)(c1cc(S(=O)(=O)N2CCOCC2)c2n[n+]3c4cc(S(=O)(=O)N5CCOCC5)cc(S(=O)(=O)N5CCOCC5)c4[n-]n3c2c1)N1CCOCC1,> 100
14,CCN(c1ccc(C(O)(C(=O)OC)C(F)(F)F)cc1)S(=O)(=O)c1ccc(C)cc1 (stereo unspecified),> 100
15,COC(=O)C1C(=O)c2c([nH]c(C(=O)OCC3CCCO3)c2C)CC1C (stereo unspecified),> 100
16,CC(C)(C)NS(=O)(=O)c1ccc2oc3ccc(S(=O)(=O)NC(C)(C)C)cc3c2c1,> 100
17,CCOC(=O)c1cnc(SC(C)C(=O)O)nc1N (stereo unspecified),> 100
18,C=CCn1c(Cc2ccccc2)nnc1SCC(=O)Nc1nnc(C)s1,> 100
19,O=C(O)CCCN1C(=O)/C(=C2/C(=O)N(CC(=O)O)c3ccccc32)SC1=S,12
20,COc1ccc(/C=C/C(=O)O)cc1S(=O)(=O)NC1CCS(=O)(=O)C1 (stereo unspecified),> 100
21,O=S(=O)(O)CCSc1nnc(SCCS(=O)(=O)O)s1,> 100
22,CN(c1ccc(C(=O)O)cc1)S(=O)(=O)c1cccs1,> 100
23,O=C(Cn1cc(C(=O)c2ccco2)c2ccccc21)NCc1cccnc1,> 100

row,Compound,IC50 [µM]
1,O=C(Nc1nnc(CCS(=O)(=O)c2ccc3ccccc3c2)s1)c1ccccc1,> 100
2,O=C(O)CC[S+]([O-])CCC(=O)O,40
3,O=C(O)CCNc1ccc(Br)cc1C(=O)O,32
4,CCc1cc2c(=O)c(-c3nc4ccccc4s3)c(C)oc2cc1OS(C)(=O)=O,> 100
5,Cc1ccc2c(c1)c1nnc(SCc3ccc(CC(=O)O)cc3)nc1n2C(=O)O,15
6,O=C(O)CCc1ccc(-c2ccc(F)cc2)n1CC(=O)O,9
7,Cc1cc(S(=O)(=O)N2CCc3ccccc32)ccc1OCC(=O)NCc1ccccn1,> 100
8,C(=C\CSc1nnnn1-c1ccccc1)/CSc1nnnn1-c1ccccc1,> 100
9,O=C(Nc1cc(S(=O)(=O)O)cc2cc(S(=O)(=O)O)cc(O)c12)c1ccccc1,27
10,COc1cc(S(=O)(=O)N(Cc2cccnc2)Cc2ccccc2Cl)ccc1-n1cnnn1,> 100
11,O=[N+]([O-])c1ccccc1-c1nnc(CSc2nc(-c3ccccc3O)n[nH]2)o1,> 100
12,O=C(O)CSc1nnc(-c2ccc(S(=O)(=O)N3CCOCC3)cc2)n1Cc1ccco1,> 100
13,COc1ccc(N(CC(=O)NC2CCCC2)C(=O)C2CSC(=O)C2)cc1 (stereo unspecified),> 100
14,N#C/C(=C\c1ccc(-c2ccccc2[N+](=O)[O-])o1)S(=O)(=O)c1ccccc1,> 100
15,O=C(O)CSC1CCS(=O)(=O)C1 (stereo unspecified),> 100
16,CCN(Cc1ccccc1)S(=O)(=O)c1ccc(S(=O)(=O)NC2CCC(C)CC2)cc1 (stereo unspecified),> 100
17,Cc1ccc(S(=O)(=O)CCc2nnc(NC(=O)CC3CC4CCC3C4)s2)cc1 (stereo unspecified),> 100
18,CCc1nnc(NS(=O)(=O)c2ccc(NC(=O)CCC(=O)O)cc2)s1,80
19,CCC(=O)N(Cc1ccc(S(N)(=O)=O)cc1)C1CC(=O)N(c2ccccc2)C1=O (stereo unspecified),> 100
20,O=C(O)CN1C(=O)/C(=C2/C(=O)N(CC(=O)O)c3ccccc32)SC1=S,13
21,Cn1c(SCC(N)=O)nnc1-c1ccc(NS(C)(=O)=O)cc1,> 100
22,O=S(=O)(O)c1ccccc1Nc1ccnc(Nc2ccccc2S(=O)(=O)O)n1,> 100
23,Cc1ccc(OCc2ccoc2C(=O)O)cc1C,11

row,Compound,IC50 [µM]
1,O=C(O)CCC(=O)NC(Cc1ccccc1)C(=O)O (stereo unspecified),40
2,O=C(O)Cn1c(=O)n(CC(=O)O)c2ccccc21,16
3,O=C(O)CCn1c(=O)oc2cc(S(=O)(=O)O)ccc21,80
4,CCS(=O)(=O)Nc1cc2c(cc1C)C(S(=O)(=O)CC)C1=C2CCC1 (stereo unspecified),> 100
5,Cc1cc(C(=O)O)c(CSCc2cc(C(=O)O)oc2C)o1,20
6,O=C(O)CN1C(=O)/C(=C2\SC(=S)N(C(Cc3ccccc3)C(=O)O)C2=O)c2ccccc21 (stereo unspecified),3
7,Cc1cc(S(=O)(=O)N2CCOCC2)ccc1OCC(=O)N1CCCC1,> 100
8,Cc1ccc(S(=O)(=O)CCc2nnc(NC(=O)CCc3ccccc3)s2)cc1,> 100
9,Cc1cc(CSCc2cc(C(=O)O)c(C)o2)oc1C(=O)O,6
10,Cc1cc(S(=O)(=O)N2CCOCC2)ccc1OCC(=O)NCc1ccncc1,> 100
11,O=C(O)CCn1c(=S)n(CCC(=O)O)c2ccccc21,15
12,CCN(CC)S(=O)(=O)c1cccc(C(=O)Nc2ccccc2C(=O)O)c1,100
13,CCS(=O)(=O)N1CCCC(c2nc(O)c3nnn(Cc4ccccc4)c3n2)C1 (stereo unspecified),> 100
14,O=C(O)CSc1cc(-c2ccccc2)nc(SCC(=O)O)n1,19
15,O=S(=O)(Nc1ccc(NS(=O)(=O)c2cccs2)cc1)c1cccs1,> 100
16,COc1cc(C=C2C(=O)OC3(CCCC3)OC2=O)cc(I)c1OCc1ccccc1C#N,> 100
17,Cc1oc(CSCC2CCCO2)cc1C(=O)O (stereo unspecified),16
18,O=C(O)CSc1cccc(C(=O)O)c1,33
19,O=C(O)CCc1ccc(-c2cccs2)n1CC(=O)O,9
20,CCOC(=O)C(CCc1nn[nH]n1)(CCc1nn[nH]n1)C(=O)OCC,> 100
21,Cc1ccc(-c2ccc(CCC(=O)O)n2CC(=O)O)cc1,12
22,O=C(O)c1ccccc1C(=O)NCc1ccc(CNC(=O)c2ccccc2C(=O)O)cc1,30
23,O=C(O)c1ccc(Oc2ccc(S(=O)(=O)c3ccc(C(=O)O)c(C(=O)O)c3)cc2)cc1,10

row,Compound,IC50 [µM]
1,CCOC(=O)C(=Cc1c[nH]c2ccc(S(=O)(=O)N(C)C)cc12)C(=O)OCC,> 100
2,COc1cc(S(=O)(=O)N(Cc2ccc(Br)cc2)Cc2ccco2)ccc1-n1cnnn1,> 100
3,O=C(O)CCS(=O)(=O)CCC(=O)O,40
4,O=C(O)CCC1(CCC(=O)O)CCCCC1=O,> 100
5,Cc1nc(NC(=O)c2ccco2)sc1C(=O)O,> 100
6,O=C(O)c1cccc(S(=O)(=O)N2CCS(=O)(=O)CC2)c1,80
7,O=C(O)CCn1c(=O)[nH]c(=O)n(CCC(=O)O)c1=O,33
8,O=S(=O)(c1ccc(OC(F)(F)F)cc1)N1CCCC(c2nc(O)c3nnn(Cc4ccccc4Cl)c3n2)C1 (stereo unspecified),> 100
9,O=C(O)CNC1CS(=O)(=O)CC1O (stereo unspecified),> 100
10,O=C(O)c1ccc(S(=O)(=O)c2ccc(Sc3ccc(C(=O)O)c(C(=O)O)c3)cc2)cc1,6
11,O=S(=O)(O)c1cc(O)c2c(S(=O)(=O)O)cc(S(=O)(=O)O)cc2c1,> 100
12,O=S(=O)(O)CC(O)CSc1nc2ccccc2s1 (stereo unspecified),100
13,O=S(=O)(c1ccccc1)N1CCCC(c2nc(-c3ccc(F)cc3)no2)C1 (stereo unspecified),> 100
14,Cc1oc(C(=O)O)cc1CSCc1cc(C(=O)O)oc1C,40
15,Cc1ccc(Cn2nnc3c(O)nc(C4CCCN(S(=O)(=O)c5ccccc5)C4)nc32)cc1 (stereo unspecified),> 100
16,CN(NC(=O)COc1ccccc1)C1=NS(=O)(=O)c2ccccc21,> 100
17,O=C(Nc1ccccc1O)c1cc(S(=O)(=O)N2CCCCCC2)ccc1Cl,> 100
18,NC(=O)CSc1nnc(-c2ccc(S(=O)(=O)N3CCCCC3)cc2)n1Cc1ccccc1,> 100
19,COC(=O)C1C(=O)C2=C(CC1C)NC(C)=C(C(=O)OC1CCCC1)C2c1ccccc1C (stereo unspecified),> 100

# Reference: ChEMBL document CHEMBL1139343, “Pharmacophore guided discovery of small-molecule human apurinic/apyrimidinic endonuclease 1 inhibitors” (J Med Chem, 2009)
